Measured values: US20210405025A1, “IDENTIFYING COMPOUNDS FOR TREATING CANCER AND USE THEREOF” (THE UAB RESEARCH FOUNDATION, priority 2018, published 2021)
Counter-ions that a name gives are not always drawn. Starred links: 1 amine or outer side, 2 acyl side, 3 side chain; linkers in the order of their positions; H or OH if unused. Positions of bridges follow the written chain, without caps; N, C: chain ends. Non-standard residues stand in square brackets, D forms with d. Residues, ends and D or L forms follow the SMILES beside them. Chains are numbered I, II in the order given. Actinocin(9to1) = Cc1c2oc3c(C)ccc(C(=O)[*:1])c3nc-2c(C(=O)[*:2])c(N)c1=O; NMeV = CN[C@H](C(=O)O)C(C)C; Sar = CNCC(=O)O

The compounds below were run on relapsed AML cells (assay: Drug sensitivity assay, 1,536-well, 3-day culture with individual approved drugs at 10 μM, viability by alamarBlue). Conditions: not given.
Type: cell-based, human
Experimental: Drug sensitivity assays were performed using a 1,536-well platform where all cells and reagents were deposited in wells using an acoustic liquid handling unit that is highly accurate for dispensing of nanoliter volumes of liquid. […] After dispensing the cells into the wells, an independent drug at a known concentration is added to each well and incubated with the cells. After three days, the percentage of live cells in each well is determined to assess the killing efficiency of each compound. […] Cell viability assays are known to those of skill in the art. See, for example, Pemovska et al., Individualized systems medicine strategy to tailor treatments for patients with chemorefractory acute myeloid leukemia. Cancer Discovery 3:1416-1429, 2013; Pabst et al., Identification of small molecules that support human leukemia stem cell activity ex vivo. Nature Methods 11:436-442, 2014; Baccelli et al., A novel approach for the identification of efficient combination therapies in primary human acute myeloid leukemia specimens. Blood Cancer Journal 7:e529, 2017. In studies described herein, the 1,536-well format was utilized, which allowed for use of four times fewer cells as well as less drug and media components due to the small assay volume of 5 microliters. […] Other compounds like CellTiter-Glo (Promega, Madison, Wis.) are equally appropriate reagents for determining cell viability.
Conditions for the drug screening assays were as described in Pabst et al., Identification of small molecules that support human leukemia stem cell activity ex vivo, Nature Methods 11:436-442, 2014). Using this protocol, cells were cultured in Iscove's Modified Dulbecco's Medium (IMDM), 15% BIT (bovine serum albumin, insulin, transferrin; Stem Cell Technologies 09500 (Vancouver, Calif.)), 100 ng/ml SCF (Shenandoah 100-04 (Warwick, Pa.)), 50 ng/ml FLT3L (Shenandoah 100-21), 20 ng/ml IL-3 (Shenandoah 100-80), 20 ng/ml G-CSF (Shenandoah 100-72), 10^-4 M β-mercaptoethanol, gentamicin (50 μg/ml) and ciprofloxacin (10 μg/ml).
Cells were removed from liquid nitrogen and placed in a 37° C. bath, just until thawed. For 1,536-well screens utilizing 6,000 wells about 100 million cells were thawed. The volume was doubled with pre-warmed culture media and placed on ice for about one to two minutes. The cells were brought to a final volume of about 8 to 10 mL before spinning down at 1,100 rpm for 5 min at 10° C. The pelleted cells were resuspended in 10 mL of culture media and plated in a tissue-culture treated T75 flask at a density of 1 to 2 million cells/ml. The cells were cultured overnight prior to fluorescence-activated cell sorting of viable cells on the following day.
After cells were cultured overnight, a cell scraper was used to remove any cells that adhered to the plastic. The cells were gently pipetted up and down to break up aggregates. Then, the entire volume was transferred to a 50 mL conical tube through a 70 micron cell strainer to remove cell clumps. The T75 flask was rinsed and scraped with about 10 mL HBSS and transferred to the same 50 mL conical tube through the strainer. The harvested cells were spun down at 1,100 rpm for 5 min at 10° C. The cells were then resuspendd in about 300-500 microliters FACS buffer (HBSS+2% FBS+1× propidium iodide) and transferred to a FACS tube. The tube was placed on ice and viable cells that are forward- and side-scatter gated on viable myeloid blasts were sorted by FACS (the scatter gate should exclude small lymphocytes, large myeloid cells, and debris). After sorting the required number of viable cells, the cells were spun down at 1,100 rpm for 5 min at 10° C. and subsequently resuspended at 4,000-4,500 cells per 5 microliter volume of complete culture media with growth factors and penicillin/streptomycin.

Compound	#Cases >70% cell death
C[CH2][Hg][S]c1ccccc1C(=O)[O-].[Na+] [THIMEROSAL]	18

Same assay, conditions: number of relapsed AML cases out of 18 tested with >70% cell death; 10 μM, 3-day culture

Compound	#Cases >70% cell death
VINFLUNINE TARTRATE	14
CCCCCCCCCCCC[N+](C)(C)CCOc1ccccc1 [DOMIPHEN BROMIDE]	16
CCN(CC)CCN(Cc1ccc(-c2ccc(C(F)(F)F)cc2)cc1)C(=O)Cn1c(SCc2ccc(F)cc2)nc(=O)c2c1CCC2 [DARAPLADIB]	18
CO[C@H]1C[C@H](O[C@H]2[C@H](C)O[C@@H](O[C@@H]3/C(C)=C/C[C@@H]4C[C@@H](C[C@]5(C=C[C@H](C)[C@@H](C6CCCCC6)O5)O4)OC(=O)[C@@H]4C=C(C)[C@@H](O)[C@H]5OC/C(=C\C=C\[C@@H]3C)[C@]54O)C[C@@H]2OC)O[C@@H](C)[C@@H]1O [DORAMECTIN]	18
O=C(c1ccc(OCCN2CCCCC2)cc1)c1c(-c2ccc(O)cc2)sc2cc(O)ccc12 [RALOXIFENE]	3
NC(=O)Nc1cc(-c2cccc(F)c2)sc1C(=O)N[C@H]1CCCNC1 [AZD-7762]	14
COc1cc2nccc(Oc3ccc(NC(=O)C4(C(=O)Nc5ccc(F)cc5)CC4)cc3)c2cc1OC [CABOZANTINIB]	2
C[n+]1cc2c3c(ccc2c2ccc4cc5c(cc4c21)OCO5)OCO3 [SANGUINARIUM CHLORIDE]	18
CCCn1c(=O)c2[nH]c(C34CC5CC(CC3C5)C4)nc2n(CCC)c1=O [ROLOFYLLINE]	1
COC(=O)C1=C(C)NC(C)=C(C(=O)OCCN2CCN(C(c3ccccc3)c3ccccc3)CC2)C1c1cccc([N+](=O)[O-])c1 (stereo not drawn) [MANIDIPINE]	5
CC(=O)c1ccc2c(c1)N(CCCN(C)C)c1ccccc1S2 [ACEPROMAZINE MALEATE]	2
COC(=O)Nc1nc2ccc(C(=O)c3ccccc3)cc2[nH]1 [MEBENDAZOLE]	5
O=C(/C=C/c1cccc(S(=O)(=O)Nc2ccccc2)c1)NO [BELINOSTAT]	1
COc1ncnc(NS(=O)(=O)c2ccc(N)cc2)c1OC [SULFADOXINE]	1
O=c1[nH]c2ccccc2n1C1CCN(CCCC(c2ccc(F)cc2)c2ccc(F)cc2)CC1 [PIMOZIDE]	1
CCCCCCCCCCCCCCCC[N+](C)(C)C.[Br-] [CETRIMONIUM BROMIDE]	17
O=c1[nH]c(=O)n([C@H]2C[C@H](O)[C@@H](CO)O2)cc1C(F)(F)F [TRIFLURIDINE]	6
[H]/N=C(\N/C(=N/[H])NCCCCCCNC(=N)NC(=N)Nc1ccc(Cl)cc1)Nc1ccc(Cl)cc1 [CHLORHEXIDINE DIHYDROCHLORIDE]	11
O=c1cc[nH]c(=O)[nH]1 [URACIL]	7
CCCSc1ccc2nc(NC(=O)OC)[nH]c2c1 [ALBENDAZOLE]	9
CN1CCOC(c2ccccc2)c2ccccc2C1 (stereo not drawn) [NEFOPAM]	2
Nc1nc(F)nc2c1ncn2[C@@H]1O[C@H](CO)[C@@H](O)[C@@H]1O [FLUDARABINE]	16
CCC1=C[C@@H]2CN(CCc3c([nH]c4ccccc34)[C@@](C(=O)OC)(c3cc4c(cc3OC)N(C)[C@H]3[C@@](O)(C(=O)OC)[C@H](OC(C)=O)[C@]5(CC)C=CCN6CC[C@]43[C@@H]65)C2)C1 [ANHYDROVINBLASTINE]	5
Cc1ccc(C(=O)c2cc(O)c(O)c([N+](=O)[O-])c2)cc1 [TOLCAPONE]	1
COc1cc2c(cc1OC)CN(CCc1ccc(NC(=O)c3cccc4c(=O)c5cccc(OC)c5[nH]c34)cc1)CC2	2

Compound	#Cases >70% cell death
CC(=O)CC(c1ccc([N+](=O)[O-])cc1)c1c(O)c2ccccc2oc1=O (stereo not drawn) [ACENOCOUMAROL]	4
Cc1c2oc3c(C)ccc(C(=O)N[C@@H]4C(=O)N[C@H](C(C)C)C(=O)N5CCC[C@H]5C(=O)N(C)CC(=O)N(C)[C@@H](C(C)C)C(=O)O[C@@H]4C)c3nc-2c(C(=O)N[C@@H]2C(=O)N[C@H](C(C)C)C(=O)N3CCC[C@H]3C(=O)N(C)CC(=O)N(C)[C@@H](C(C)C)C(=O)O[C@@H]2C)c(N)c1=O [DACTINOMYCIN] (I: T[dV]P[Sar][NMeV] / II: T[dV]P[Sar][NMeV]; ester I:1-I:C, II:1-II:C; linker I:N-II:N via Actinocin(9to1))	17
CCNC1=Nc2ccc(Cl)cc2C(C)(c2ccccc2)O1 (stereo not drawn) [ETIFOXINE]	4
Nc1nc(Cl)nc2c1ncn2[C@@H]1O[C@H](CO)[C@@H](O)[C@@H]1F [CLOFARABINE]	18
COc1cc2c(cc1O)CC[C@@H]1[C@@H]2CC[C@]2(C)[C@@H](O)CC[C@@H]12 [2-METHOXYESTRADIOL]	2
CCOc1ccc2nc3cc(N)ccc3c(N)c2c1 [ETHACRIDINE LACTATE]	2
Nc1ncnc2c1ncn2CCOCP(=O)(O)O [ADEFOVIR]	18
Nc1ncn([C@@H]2O[C@H](CO)[C@@H](O)[C@H]2O)c(=O)n1 [AZACYTIDINE]	8
COCc1c(C(C)C)nc(C(C)C)c(/C=C/[C@@H](O)C[C@@H](O)CC(=O)O)c1-c1ccc(F)cc1 [CERIVASTATIN]	17
CN(C[C@@H]1COCCO1)S(=O)(=O)Nc1ccc2ccc3ncc(-c4cnn(C)c4)cc3c(=O)c2c1 [MK-2461]	2
Clc1ccc(CO/N=C(\Cn2ccnc2)c2ccc(Cl)cc2Cl)c(Cl)c1 [OXICONAZOLE]	1
Cc1nnc(NS(=O)(=O)c2ccc(N)cc2)s1 [SULFAMETHIZOLE]	18
BLEOMYCIN	2
Nc1ccc2cc3ccc(N)cc3nc2c1 [PROFLAVINE HEMISULFATE]	3
C[C@H](CCC(=O)O)[C@H]1CC[C@H]2[C@@H]3[C@@H](O)C[C@@H]4C[C@H](O)CC[C@]4(C)[C@H]3CC[C@]12C [URSODIOL]	2
COc1ccc2nc3cc(Cl)ccc3c(Nc3cc(CN4CCCC4)c(O)c(CN4CCCC4)c3)c2n1.O=P(O)(O)O.O=P(O)(O)O.O=P(O)(O)O.O=P(O)(O)O [PYRONARIDINE TETRAPHOSPHATE]	9
OC1(c2ccc(Cl)c(C(F)(F)F)c2)CCN(CCCC(c2ccc(F)cc2)c2ccc(F)cc2)CC1 [PENFLURIDOL]	14
CC(C)(C)CC(C)(C)c1ccc(OCCOCC[N+](C)(C)Cc2ccccc2)cc1 [BENZETHONIUM CHLORIDE]	16
Clc1ccc2c(c1)CCc1cccnc1C2=C1CCNCC1 [DESLORATADINE]	1
CCCCCCCCNC(C)C(O)c1ccc(SC(C)C)cc1 (stereo not drawn) [SULOCTIDIL]	12
COc1cc([C@@H]2c3cc4c(cc3[C@@H](O[C@@H]3O[C@@H]5CO[C@@H](c6cccs6)O[C@H]5[C@H](O)[C@H]3O)[C@H]3COC(=O)[C@H]23)OCO4)cc(OC)c1O [TENIPOSIDE]	10
CN(C)c1ccc2nc3ccc(=[N+](C)C)cc-3sc2c1 [METHYLENE BLUE]	18
CCOC(=O)C1=C(COCCN)NC(C)=C(C(=O)OC)C1c1ccccc1Cl (stereo not drawn) [AMLODIPINE]	14
COc1ccc(C[C@H](N)C(=O)N[C@H]2[C@@H](O)[C@H](n3cnc4c(N(C)C)ncnc43)O[C@@H]2CO)cc1 [PUROMYCIN]	18
Cc1c(Nc2ncccc2C(=O)O)cccc1C(F)(F)F [FLUXININ]	3
